According to US12252488B2 (Nimbus Saturn, Inc., priority 2021, dated 2025):
pIC50: −log10 of the molar value.

The compounds below were run against T1, HPK1 (Homo sapiens, UniProt Q92918) (assay: HPK1 biochemical enzyme assay (microfluidic mobility shift assay)). Settings: 1000 uM (1 mM) ATP; Caliper mobility shift; 1.5 nM HPK1; 30 min preincubation; read-out: HPK1 1000UMATP caliper IC50.
T1 construct: purchased Invitrogen
Method: Example 33. HPK1 Biochemical Enzyme Assay
HPK1 biochemical enzyme assay: HPK1 enzyme inhibition was measured using a microfluidic mobility shift assay. Reactions were performed in a 384-well plate, containing 1.5 nM HPK1 (Invitrogen), in assay buffer (Carna Biosciences; pH 7.4). Test compounds were titrated in ten point curves (top final assay concentration 3 μM), and preincubated with enzyme/substrate mix for 30 min prior to initiation of the reaction by addition of ATP (1 mM final concentration) and substrate (1 μM final concentration; Carna Biosciences) diluted in assay buffer supplemented by MgCl2 (final assay concentration of 5 mM). Following 60 min incubation at RT, the reaction was terminated by addition of 60 μl/well termination buffer (Carna Biosciences) and signal determination using a Caliper EZ Reader (Perkin Elmer, UK).
The compound numbers correspond to the compound numbers in Table 1. Compounds having an activity designated as “A” provided an IC50≤100 nM; compounds having an activity designated as “B” provided an IC50>100 nM and ≤1,000 nM; compounds having an activity designated as “C” provided an IC50>1,000 nM.

T1 sequence (Q92918 whole entry): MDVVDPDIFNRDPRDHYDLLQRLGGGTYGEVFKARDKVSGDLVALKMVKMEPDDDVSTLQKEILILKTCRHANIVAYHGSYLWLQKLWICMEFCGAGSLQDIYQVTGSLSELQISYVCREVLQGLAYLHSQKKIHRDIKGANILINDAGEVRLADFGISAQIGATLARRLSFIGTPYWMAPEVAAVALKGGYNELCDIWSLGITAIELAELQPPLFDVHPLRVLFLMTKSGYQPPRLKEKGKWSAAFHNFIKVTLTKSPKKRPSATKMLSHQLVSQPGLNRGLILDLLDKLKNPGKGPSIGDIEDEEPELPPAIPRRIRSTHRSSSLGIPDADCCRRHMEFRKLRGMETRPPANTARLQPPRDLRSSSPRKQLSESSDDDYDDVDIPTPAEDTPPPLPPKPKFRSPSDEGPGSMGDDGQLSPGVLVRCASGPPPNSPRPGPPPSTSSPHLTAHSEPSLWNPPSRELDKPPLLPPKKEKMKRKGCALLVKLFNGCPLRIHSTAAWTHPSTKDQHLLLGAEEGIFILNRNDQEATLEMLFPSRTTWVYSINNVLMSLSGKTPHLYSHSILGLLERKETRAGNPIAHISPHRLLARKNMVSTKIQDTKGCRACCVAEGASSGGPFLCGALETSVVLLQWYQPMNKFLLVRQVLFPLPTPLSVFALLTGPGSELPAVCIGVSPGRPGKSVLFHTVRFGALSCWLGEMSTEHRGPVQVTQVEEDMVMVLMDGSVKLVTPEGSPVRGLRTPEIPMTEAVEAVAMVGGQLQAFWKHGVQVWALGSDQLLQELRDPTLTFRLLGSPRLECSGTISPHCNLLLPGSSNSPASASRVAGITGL

Row | Compound | pIC50
1 | O=c1[nH]ccc2nc(-c3cc(CN4CC5(CCOC5)C4)ccc3F)cc(Nc3ccc(N4CCC(O)CC4)cn3)c12 [I-256, 2-[2-fluoro-5-(6-oxa-2-azaspiro [3.4]octan-2-ylmethyl)phenyl]-4-[[5-(4-hydroxy-1-piperidyl)-2-pyridyl]amino]-6H-1,6-naphthyridin-5-one] | < 6.00
2 | O=c1[nH]ccc2nc(-c3ccc(C4CCCO4)cc3F)cc(Nc3ccc(N4CCC(O)CC4)cn3)c12 (centres unmarked) [I-276, 2-(2-fluoro-4-THF-2-yl-phenyl)-4-[[5-(4-hydroxy-1-piperidyl)-2-pyridyl]amino]-6H-1,6-naphthyridin-5-one] | < 6.00
3 | N#CC1(c2ccc(F)c(-c3cc(Nc4ccc(N5CCC(O)CC5)cn4)c4c(=O)[nH]ccc4n3)c2)CC1 [I-105, 1-[4-fluoro-3-[4-[[5-(4-hydroxy-1-piperidyl)-2-pyridyl]amino]-5-oxo-6H-1,6-naphthyridin-2-yl]phenyl] cyclo-propane-carbonitrile] | < 6.00
4 | Cc1cc(-c2cc(Nc3ccc(N4CCNCC4)cn3)c3c(=O)[nH]ccc3n2)c(F)cc1NC(=O)C1CCCCC1 [I-197, N-[5-fluoro-2-methyl-4-[5-oxo-4-[(5-piperazin-1-yl-2-pyridyl)amino]-6H-1,6-naphthyridin-2-yl]phenyl] cyclohexane carboxamide] | 6.00 to 7.00
5 | O=c1[nH]ccc2nc(-c3c(F)cccc3F)cc(Nc3ccc(S(=O)(=O)N4CCCCC4)cn3)c12 [I-24, 2-(2,6-difluoro-phenyl)-4-[[5-(1-piperidyl-sulfonyl)-2-pyridyl]amino]-6H-1,6-naphthyridin-5-one] | 6.00 to 7.00
6 | COc1ccc(F)c(-c2cc(Nc3ccc(N4CCC(O)CC4)cn3)c3c(=O)[nH]ccc3n2)c1 [I-42, 2-(2-fluoro-5-methoxyphenyl)-4-((5-(4-hydroxypiperidin-1-yl)pyridin-2-yl)amino)-1,6-naphthyridin-5(6H)-one] | 6.00 to 7.00
7 | O=c1[nH]cc(Br)c2nc(-c3c(F)cccc3F)cc(Nc3ccc(N4CCC(O)CC4)cn3)c12 [I-5, 8-bromo-2-(2,6-difluorophenyl)-4-[[5-(4-hydroxy-1-piperidyl)-2-pyridyl]amino]-6H-1,6-naphthyridin-5-one] | 6.00 to 7.00
8 | O=C(c1ccc(-c2cc(Nc3ccc(N4CCC(O)CC4)cn3)c3c(=O)[nH]ccc3n2)c(F)c1)N1CCCC1CO (centres unmarked) [I-147, 2-[2-fluoro-4-[2-(hydroxy-methyl)pyrrolidine-1-carbonyl]phenyl]-4-[[5-(4-hydroxy-1-piperidyl)-2-pyridyl]amino]-6H-1,6-naphthyridin-5-one] | 6.00 to 7.00
9 | Cc1c(C(=O)N2CCCCC2)ccc(-c2cc(Nc3ccc(N4CCC(O)CC4)cn3)c3c(=O)[nH]ccc3n2)c1F [I-113, 2-[2-fluoro-3-methyl-4-(piperidine-1-carbonyl)phenyl]-4-[[5-(4-hydroxy-1-piperidyl)-2-pyridyl]amino]-6H-1,6-naphthyridin-5-one] | 6.00 to 7.00
10 | COc1cc(-c2cc(Nc3cnn(C)c3)c3c(=O)[nH]ccc3n2)c(F)cc1C(=O)N1CCCCC1 [I-199, 2-[2-fluoro-5-methoxy-4-(piperidine-1-carbonyl)phenyl]-4-[(1-methyl-pyrazol-4-yl)amino]-6H-1,6-naphthyridin-5-one] | 6.00 to 7.00

More lines, now with the values ahead:

Row | pIC50 | Compound
11 | 6.00 to 7.00 | O=c1[nH]ccc2nc(C3CCCC3)cc(Nc3ccc(N4CCC(O)CC4)cn3)c12 [I-20, 2-cyclopentyl-4-[[5-(4-hydroxy-1-piperidyl)-2-pyridyl]amino]-6H-1,6-naphthyridin-5-one]
12 | ≥ 7.00 | COC1CCN(c2ccc(Nc3cc(-c4ccc(NC(=O)C5CCCCC5)cc4F)nc4cc[nH]c(=O)c34)nc2)CC1 [I-204, N-[3-fluoro-4-[4-[[5-(4-methoxy-1-piperidyl)-2-pyridyl]amino]-5-oxo-6H-1,6-naphthyridin-2-yl]phenyl] cyclohexane carboxamide]
13 | 6.00 to 7.00 | O=c1[nH]ccc2nc(-c3cc4c(cc3F)CCC4N3CC4(CCC4)C3)cc(Nc3ccc(N4CCC(O)CC4)cn3)c12 (centres unmarked) [I-258, 2-[3-(2-azaspiro [3.3]heptan-2-yl)-6-fluoro-indan-5-yl]-4-[[5-(4-hydroxy-1-piperidyl)-2-pyridyl]amino]-6H-1,6-naphthyridin-5-one]
14 | 6.00 to 7.00 | CN(C)Cc1ccc(F)c(-c2cc(Nc3ccc(N4CCC(O)CC4)cn3)c3c(=O)[nH]ccc3n2)c1 [I-117, 2-[5-[(dimethyl-amino)methyl]-2-fluoro-phenyl]-4-[[5-(4-hydroxy-1-piperidyl)-2-pyridyl]amino]-6H-1,6-naphthyridin-5-one]
15 | 6.00 to 7.00 | O=C(c1ccc(-c2cc(Nc3ccc(N4CCC(O)CC4)cn3)c3c(=O)[nH]ccc3n2)c(F)c1)N1CCNCC1 [I-119, 2-[2-fluoro-4-(piperazine-1-carbonyl)phenyl]-4-[[5-(4-hydroxy-1-piperidyl)-2-pyridyl]amino]-6H-1,6-naphthyridin-5-one]
16 | 6.00 to 7.00 | COc1cc(-c2cc(Nc3ccc(N4CCC(O)CC4)cn3)c3c(=O)[nH]ccc3n2)c(F)cc1CN(C)C [I-215, 2-(4-((Dimethylamino)methyl)-2-fluoro-5-methoxyphenyl)-4-((5-(4-hydroxypiperidin-1-yl)pyridin-2-yl)amino)-1,6-naphthyridin-5(6H)-one]
17 | 6.00 to 7.00 | CC(=O)Nc1ccc(F)c(-c2cc(Nc3ccc(N4CCC(O)CC4)cn3)c3c(=O)[nH]ccc3n2)c1 [I-76, N-[4-fluoro-3-[4-[[5-(4-hydroxy-1-piperidyl)-2-pyridyl]amino]-5-oxo-6H-1,6-naphthyridin-2-yl]phenyl] acetamide]
18 | ≥ 7.00 | CC1CCCCN1C(=O)c1ccc(-c2cc(Nc3ccc(N4CCC(O)CC4)cn3)c3c(=O)[nH]ccc3n2)c(F)c1 (centres unmarked) [I-130, 2-[2-fluoro-4-(2-methyl-piperidine-1-carbonyl)phenyl]-4-[[5-(4-hydroxy-1-piperidyl)-2-pyridyl]amino]-6H-1,6-naphthyridin-5-one]
19 | ≥ 7.00 | O=c1[nH]ccc2nc(N3CCC[C@H](O)C3)cc(Nc3ccc(N4CCC(O)CC4)cn3)c12 [I-81, 2-[(3S)-3-hydroxy-1-piperidyl]-4-[[5-(4-hydroxy-1-piperidyl)-2-pyridyl]amino]-6H-1,6-naphthyridin-5-one]
20 | ≥ 7.00 | CN1CCN(c2ccc(Nc3cc(-c4cnc5c(c4)CC(=O)N5)nc4cc[nH]c(=O)c34)nc2)CC1 [I-227, 4-[[5-(4-methyl-piperazin-1-yl)-2-pyridyl]amino]-2-(2-oxo-1,3-dihydro-pyrrolo[2,3-b]pyridin-5-yl)-6H-1,6-naphthyridin-5-one]
21 | ≥ 7.00 | CC1(C(=O)Nc2ccc(-c3cc(Nc4ccc(N5CCNCC5)cn4)c4c(=O)[nH]ccc4n3)c(F)c2)CCC1 [I-219, N-[3-fluoro-4-[5-oxo-4-[(5-piperazin-1-yl-2-pyridyl)amino]-6H-1,6-naphthyridin-2-yl]phenyl]-1-methyl-cyclobutane-carboxamide]
22 | ≥ 7.00 | O=c1[nH]ccc2nc(-c3cc(C4COC4)ccc3F)cc(Nc3ccc(N4CCC(O)CC4)cn3)c12 [I-103, 2-[2-fluoro-5-(oxetan-3-yl)phenyl]-4-[[5-(4-hydroxy-1-piperidyl)-2-pyridyl]amino]-6H-1,6-naphthyridin-5-one]
23 | ≥ 7.00 | O=C(c1cc(F)c(-c2cc(Nc3ccc(N4CCC(O)CC4)cn3)c3c(=O)[nH]ccc3n2)cc1C1CC1)N1CCCCC1 [I-270, 2-[5-cyclopropyl-2-fluoro-4-(piperidine-1-carbonyl)phenyl]-4-[[5-(4-hydroxy-1-piperidyl)-2-pyridyl]amino]-6H-naphthyridin-5-one]
